The target of assay [1] is T1, SOS1 nucleotide exchange of KRAS (catalytic domain of SOS1, residues 564-1049; wild-type KRAS) (Homo sapiens, UniProt Q07889).
T1 construct: tagless catalytic domain of SOS1 (residues 564-1049)
T1 sequence (Q07889 564-1049): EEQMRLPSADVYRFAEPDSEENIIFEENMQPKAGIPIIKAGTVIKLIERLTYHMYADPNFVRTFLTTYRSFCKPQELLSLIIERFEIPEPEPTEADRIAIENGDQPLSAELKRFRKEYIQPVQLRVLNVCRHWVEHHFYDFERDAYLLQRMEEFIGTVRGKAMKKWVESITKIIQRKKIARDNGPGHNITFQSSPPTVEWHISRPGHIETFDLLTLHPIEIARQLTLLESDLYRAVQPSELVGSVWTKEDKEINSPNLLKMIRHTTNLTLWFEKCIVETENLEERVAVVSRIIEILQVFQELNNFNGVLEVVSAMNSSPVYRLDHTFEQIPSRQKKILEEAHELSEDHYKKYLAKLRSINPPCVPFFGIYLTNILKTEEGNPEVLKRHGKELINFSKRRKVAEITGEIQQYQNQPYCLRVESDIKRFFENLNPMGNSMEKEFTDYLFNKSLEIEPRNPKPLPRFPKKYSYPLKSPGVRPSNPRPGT
The experiment in a line: Mode of Action Assay: Inhibition of SOS1 Nucleotide Exchange Activity (TR-FRET). Format: biochemical. The settings on record: TR-FRET signal. In outline: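 SOS1 catalytic domain (564-1049, 100 nM as diluted) preincubated 20 min with compounds (100 μM–1.7 nM, 11-point 3-fold) in HEPES pH 7.5 buffer with MgCl2. Then mixed with avi-KRAS(1-169), Streptavidin-Tb and EDA-GTP-DY-647P1 for 30 min at room temperature. TR-FRET normalized to DMSO and positive control, triplicates; IC50 by four-parameter logistic fit.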

Assay [2] addresses T2, SOS1 catalytic domain (residues 564-1049) (Homo sapiens, UniProt Q07889).
T2 construct: SOS1 catalytic domain (residues 564-1049) immobilized on a sensor chip
T2 sequence (Q07889 564-1049): T1 sequence (Q07889 564-1049)
The experiment in a line: Binding affinity to SOS1 using Surface Plasmon Resonance (SPR). Conditions: avi-tagged SOS1 catalytic domain immobilized on sensor chip; read-out: SOS1 SPR Equilibrium Kd. In outline:
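Avi-tagged human SOS1 catalytic domain (564-1049) captured on streptavidin chip (~6000 RU); compounds flowed at 50 μL/min, 5 μM to 4.9 nM in ten 2-fold steps, in HEPES/NaCl/P20 buffer with 2% DMSO, double-referenced. Kd from end-of-association response plotted versus concentration.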

The test system of assay [3] is cellular pERK in PC-9 cells (EGFR Ex19Del). Nature of the assay: Potency Assay: pERK. Format: cell-based. Conditions: Homo sapiens, read-out: SOS1 pERK IC50. An excerpt: The purpose of this assay is to measure the ability of test compounds to inhibit SOS1 function in cells. SOS1 activates RAS proteins by catalyzing the conversion of […] to […] in response to receptor tyrosine kinase activation. Activation of RAS induces a sequence of cellular signaling events that results in increased phosphorylation of ERK at […] (pERK). The procedure described below measures the level of cellular pERK in response to test compounds in PC-9 cells (EGFR Ex[…]). PC-9 cells were grown and maintained using media and procedures recommended by the ATCC. On the day prior to compound addition, cells were plated in 384-well cell culture plates (40 μL/well) and grown overnight in a 37° C., 5% CO2 incubator. Test compounds were prepared in 10, 3-fold dilutions in DMSO, with a top concentration of 10 mM. On the day of the assay, 40 nL of test compound was added to each well of cell culture plate using an Echo550 liquid handler (LabCyte). Concentrations of test compound were tested in duplicate with highest test concentration being 10 μM. After compound addition, cells were incubated for 1 hour at 37° C., 5% CO2. Following incubation, culture medium was removed and cells were washed once with phosphate buffered saline. Cellular pERK level was determined using the AlphaLISA SureFire Ultra p-ERK1/2 Assay Kit (PerkinElmer). Cells were lysed in 25 μL lysis buffer, with shaking at 600 RPM at room temperature for 15 minutes. Lysate (10 μL) was transferred to a 384-well Opti-plate (PerkinElmer) and 5 μL acceptor mix was added. The plate was centrifuged at 1000 RPM for 1 minute, and incubated in the dark for 2 hours. Following this incubation, 5 μL of donor mix was added, the plate was sealed and centrifuged at 1000 RPM for 1 minute, and the mixture was incubated for 2 hours at room temperature. Signal was read on an Envision plate reader (PerkinElmer) using standard AlphaLISA settings. Analysis of raw data was carried out in Excel (Microsoft) and Prism (GraphPad). Signal was plotted vs. the decadal logarithm of compound concentration, and IC50 was determined by fitting a 4-parameter sigmoidal concentration response model.

Where [4] appears, read: PC-9 cells (EGFR Ex19Del), 1 hour incubation, AlphaLISA p-ERK1/2.

Counter-ions that a name gives are not always drawn. Like-named read-outs stand apart in the source and are kept apart here.

Regarding `C[C@@H](Nc1ncnc2sc(C(=O)N3CCOCC3)cc12)c1cc(N)cc(C(F)(F)F)c1` [Example 65, N-[(1R)-1-[3-amino-5-(trifluoromethyl)phenyl]ethyl]-6-(morpholine-4-carbonyl)thieno[2,3-d]pyrimidin-4-amine], the IC50 in assay [1] and in assay [3] (setting [4]) was below 1 µM each time. The Kd (commonly the concentration at which binding is half-saturated) in assay [2] is at most 0.4 µM.

For `C[C@@H](Nc1nc(Cl)cn2nc(C(=O)N3CCOCC3)cc12)c1cc(N)cc(C(F)(F)F)c1` [Example 74], the IC50 (as a rule, the concentration at which inhibition is half-maximal) in assay [1] is above 1 µM; in assay [3] (setting [4]) it was below 1 µM. Besides, the Kd in assay [2] was above 0.4 µM.

Consider `Cc1nc(N[C@H](C)c2cc(N)cc(C(F)(F)F)c2)c2cc(C(=O)N3CC(O)C3)cn2n1` [Example 33, [4-[[(1R)-1-[3-amino-5-(trifluoromethyl)phenyl]ethyl]amino]-2-methyl-pyrrolo[2,1-f][1,2,4]triazin-6-yl]-(3-hydroxyazetidin-1-yl)methanone], for which the half-inhibitory concentration (IC50) in assay [1] and in assay [3] (setting [4]) was below 1 µM in each case. Further, the dissociation constant (Kd) in assay [2] is above 0.4 µM.

For `C[C@@H](Nc1nccn2nc(C3=CCNCC3)nc12)c1cc(N)cc(C(F)(F)F)c1` [Example 53, N-[(1R)-1-[3-amino-5-(trifluoromethyl)phenyl]ethyl]-2-(1,2,3,6-tetrahydropyridin-4-yl)-[1,2,4]triazolo[1,5-a]pyrazin-8-amine], the 50% inhibitory concentration (IC50) in assay [1] and in assay [3] (setting [4]) was above 1 µM in each case. Also, in assay [2], the Kd is at most 0.4 µM.

In the case of `C[C@@H](Nc1nc(Cl)nc2cc(C(=O)N3CCOCC3)[nH]c12)c1cc(N)cc(C(F)(F)F)c1` [Example 51, N-[(1R)-1-[3-amino-5-(trifluoromethyl)phenyl]ethyl]-2-chloro-6-(morpholine-4-carbonyl)-5H-pyrrolo[3,2-d]pyrimidin-4-amine], the IC50 in assay [1] and in assay [3] (setting [4]) was above 1 µM each time. For the same molecule, in assay [2], the Kd is above 0.4 µM.

In the case of `CC(=O)N1CC2(C1)CN(C(=O)c1cn3c(N[C@H](C)c4cccc(C(F)F)c4F)nccc3n1)C2` [Example 89], the half-inhibitory concentration (IC50) in assay [1] and in assay [3] (setting [4]) was below 1 µM in each case. Also, in assay [2], the Kd is at most 0.4 µM.

Take `C[C@@H](Nc1ncnn2cc(C(=O)N3CCOCC3)cc12)c1cc(N)cc(C(F)(F)F)c1` [Example 50, N-[(1R)-1-[3-amino-5-(trifluoromethyl)phenyl]ethyl]-6-(morpholine-4-carbonyl)pyrrolo[2,1-f][1,2,4]triazin-4-amine]: the concentration for half-maximal inhibition (IC50) in assay [1] and in assay [3] (setting [4]) was below 1 µM in each case. Also, the dissociation constant Kd in assay [2] was above 0.4 µM.

`C[C@@H](Nc1nccc2nc(C(=O)N3CC4(CN(CC(F)(F)F)C4)C3)cn12)c1cccc(C(F)F)c1F` [Example 91]: the IC50 in assay [1] and in assay [3] (setting [4]) was below 1 µM each time. Moreover, in assay [2], the Kd was at most 0.4 µM.

With `C[C@@H](Nc1nc(Cl)nc2[nH]c(C(=O)N3CCOCC3)nc12)c1cccc(C(F)(F)CO)c1` [Example 73, (R)-(2-chloro-6-((1-(3-(1,1-difluoro-2-hydroxyethyl)phenyl)ethyl)amino)-9H-purin-8-yl)(morpholino)methanone], the figures for the IC50 in assay [1] and in assay [3] (setting [4]) were below 1 µM and above 1 µM, respectively. Also, the dissociation constant Kd in assay [2] is at most 0.4 µM.

Turning to `C[C@@H](Nc1nc(Cl)cn2cc(C(=O)N3CCOCC3)nc12)c1cc(N)cc(C(F)(F)F)c1` [Example 29, [8-[[(1R)-1-[3-amino-5-(trifluoromethyl)phenyl]ethyl]amino]-6-chloro-imidazo[1,2-a]pyrazin-2-yl]-morpholino-methanone], the half-inhibitory concentration (IC50) in assay [1] and in assay [3] (setting [4]) was above 1 µM in each case. Also, in assay [2], the Kd is above 0.4 µM.

As for `C[C@@H](Nc1ncnn2cc(C(=O)N3CC4(COC4)C3)cc12)c1cccc(C(F)F)c1F` [Example 71], the concentration for half-maximal inhibition (IC50) in assay [1] and in assay [3] (setting [4]) was below 1 µM throughout. The Kd in assay [2] is at most 0.4 µM.

As to `C[C@@H](Nc1ncnc2sc(C(=O)N3CCOCC3)cc12)c1cccc(C(F)(F)CO)c1` [Example 83, (R)-(4-((1-(3-(1,1-difluoro-2-hydroxyethyl)phenyl)ethyl)amino)thieno[2,3-d]pyrimidin-6-yl)(morpholino)methanone], the IC50 in assay [1] and in assay [3] (setting [4]) was below 1 µM in each case. For the same molecule, the Kd in assay [2] was at most 0.4 µM.

For `C[C@@H](Nc1nc(Cl)nn2cc(C(=O)N3CC4(CN(C)C4)C3)cc12)c1cccc(C(F)F)c1F` [Example 99], the 50% inhibitory concentration (IC50) in assay [1] and in assay [3] (setting [4]) was below 1 µM in each case. Further, the Kd in assay [2] is at most 0.4 µM.

In the case of `Cc1nc(N[C@H](C)c2cc(N)cc(C(F)(F)F)c2)c2cc(C(=O)N3CCOCC3)cn2n1` [Example 41, [4-[[(1R)-1-[3-amino-5-(trifluoromethyl)phenyl]ethyl]amino]-2-methyl-pyrrolo[2,1-f][1,2,4]triazin-6-yl]morpholino-methanone], the half-maximal inhibitory concentration (IC50) in assay [1] and in assay [3] (setting [4]) was below 1 µM in each case. For the same molecule, the dissociation constant (Kd) in assay [2] was at most 0.4 µM.

Take `C[C@@H](Nc1nccc2nc(C(=O)N3CCNCC3)cn12)c1cccc(C(F)F)c1F` [Example 85, [5-[[(1R)-1-[3-(difluoromethyl)-2-fluoro-phenyl]ethyl]amino]imidazo[1,2-c]pyrimidin-2-yl]-piperazin-1-yl-methanone hydrochloride]: the half-maximal inhibitory concentration (IC50) in assay [1] was below 1 µM; in assay [3] (PC-9, 1 h), below 1 µM. Moreover, the dissociation constant (Kd) in assay [2] was at most 0.4 µM.

`C[C@@H](Nc1ncnc2sc(C(=O)N3CCOCC3)nc12)c1cc(N)cc(C(F)(F)F)c1` [Example 42, [7-[[(1R)-1-[3-amino-5-(trifluoromethyl)phenyl]ethyl]amino]thiazolo[5,4-d]pyrimidin-2-yl]-morpholino-methanone]: the 50% inhibitory concentration (IC50) in assay [1] and in assay [3] (setting [4]) was below 1 µM each time. In addition, the equilibrium dissociation constant (Kd) in assay [2] is at most 0.4 µM.

As to `CNCc1ccccc1-c1ccc(C(C)Nc2nc(C)nn3cc(C4=CCNCC4)cc23)s1` (stereo not drawn) [Example 40, 2-methyl-N-[1-[5-[2-(methylaminomethyl)phenyl]-2-thienyl]ethyl]-6-(1,2,3,6-tetrahydropyridin-4-yl)pyrrolo[2,1-f][1,2,4]triazin-4-amine], the IC50 in assay [1] and in assay [3] (setting [4]) was above 1 µM each time. The Kd in assay [2] was at most 0.4 µM.

`C[C@@H](Nc1ncnn2cc(C(=O)N3CCN(C)CC3)cc12)c1cccc(C(F)F)c1F` [Example 69]: the 50% inhibitory concentration (IC50) in assay [1] and in assay [3] (setting [4]) was below 1 µM in each case. Besides, the Kd in assay [2] is at most 0.4 µM.

The values above are taken from patent US20230148450A9, “BICYCLIC HETEROARYL COMPOUNDS AND USES THEREOF” (Revolution Medicines, Inc., priority 2019, published 2023).
